Experimental data: publication PMC9117324 (Scientific Reports, 2022)
Where “and” joins values, the source holds several entries; their conditions need not be identical. Equal entries are not always repeated. Values belong to the compound of their own block, whether it stands above or below them.

Key:
[1] = tested on: A549 human lung cancer cells; experiment: MTT cell viability assay, A549; type: cell-based
Experimental: (§1) All cancer cells were cultured in RPMI 1640 medium with 10% FBS in a humidified incubator of 95% air and 5% CO2 at 37 °C. […] Then, […] of MTT solution (5 mg/ml) was added to every well and kept at 37 °C for 4 h in the dark. After removing the medium, 200 µl DMSO was added, and the solution was kept on a shaker for approximately 15 min until the formazan solved completely. The absorbance was evaluated at 490 nm with an ELISA reader. The IC50 was computed by GraphPad Prism 7.0 software. […] All of cell lines were treated for three different duration times (24, 48 and 72 h). The Caco-2 cells were very sensitive to Pt(TSC)Cl in comparison with the two others in all three different durations of treatment. We also used cisplatin, a commercially available platinum-based compound, as a reference. […] Cell viability was assessed with MTT and is presented relative to untreated cells (set to 100%).

[2] = tested on: MCF-7 human breast cancer cells; experiment: MTT cell viability assay, MCF-7; type: cell-based
Experimental: as §1

[3] = tested on: Caco-2 human colon cancer cells; experiment: MTT cell viability assay, Caco-2; type: cell-based; settings: for IC50: MTT
Experimental: as §1, with “h).” for “h). The Caco-2 cells were very sensitive to Pt(TSC)Cl in comparison with the two others in all three different durations of treatment. We also used cisplatin, a commercially available platinum-based compound, as a reference.”

[4] = tested on: Hek293 human embryonic kidney cells; experiment: MTT cell viability assay, Hek293 (nephrotoxicity); type: cell-based; settings: Hek293 normal kidney cells, 24 h
Experimental: All cancer cells were cultured in RPMI 1640 medium with 10% FBS in a humidified incubator of 95% air and 5% CO2 at 37 °C. […] Then, […] of MTT solution (5 mg/ml) was added to every well and kept at 37 °C for 4 h in the dark. After removing the medium, 200 µl DMSO was added, and the solution was kept on a shaker for approximately 15 min until the formazan solved completely. The absorbance was evaluated at 490 nm with an ELISA reader. The IC50 was computed by GraphPad Prism 7.0 software. […] Cell viability was assessed with MTT and is presented relative to untreated cells (set to 100%).

A549 cells [5] = experiment: Cell cycle distribution by PI flow cytometry, A549; type: cell-based, Human; settings: A549, IC50 concentration, 48 h
Experimental: (§2) Evaluation of cell cycle progression was performed by flow cytometry of propidium iodide and can identify the fraction of time spent by cells in various stages of the cell cycle. […] Cell cycle distribution was determined by flow cytometry by the protocol described previously. The control condition consisted of cells cultured in the absence of treatment but in the presence of PI. After harvesting the cells with trypsin, they were rinsed and fixed with 70% ethanol and kept for 3 days at 4 °C. Then, the samples were centrifuged, and after removal of supernatants […], the cells were dispersed in 300 µL of PBS. Next, after adding 10 µL of ribonuclease-A (10 mg/mL) and 45 min of incubation, 10 µL propidium iodide (1 mg/mL) was added to each of the samples and vortexed. After 10 min of incubation at room temperature and in the dark, the cells were examined by a FACSCalibur flow cytometer to estimate the cell cycle phases. FlowJo 7.6 software was used to analyze the cell cycle.

MCF-7 cells [6] = experiment: Cell cycle distribution by PI flow cytometry, MCF-7; type: cell-based, Human; settings: MCF-7, IC50 concentration, 48 h
Experimental: as §2

Caco-2 cells [7] = experiment: Cell cycle distribution by PI flow cytometry, Caco-2; type: cell-based, Human; settings: Caco-2, IC50 concentration, 48 h
Experimental: as §2

A549 cells [8] = experiment: Annexin V-FITC/PI apoptosis flow cytometry, A549; type: cell-based, Human; settings: A549, IC50 concentration, 48 h
Experimental: (§3) After washing the cells with cold PBS, they were resuspended in 100 µl binding buffer containing Annexin V-FITC (5 μL) and PI (5 μL) solution. After incubation for 15 min at room temperature, cells were washed and suspended in 100 μL of 1 × binding buffer. Cells were investigated by a FACSCanto II ([…]) flow cytometry system. The percentage of apoptotic cells was calculated by summation of the cells in (annexin V+ , PI−) and (annexin V+ , PI+) and the percentage of necrotic cells achieved from (annexin V−, PI+). An Annexin-V/PI assay was performed via flow cytometry to measure the percentage of cells with early and late apoptotic changes.

MCF-7 cells [9] = experiment: Annexin V-FITC/PI apoptosis flow cytometry, MCF-7; type: cell-based, Human; settings: MCF-7, IC50 concentration, 48 h
Experimental: as §3

Caco-2 cells [10] = experiment: Annexin V-FITC/PI apoptosis flow cytometry, Caco-2; type: cell-based, Human; settings: Caco-2, IC50 concentration, 48 h
Experimental: as §3

Caco-2 cells [11] = experiment: Western blot of apoptotic proteins; type: cell-based, Human; settings: Caco-2, IC50 value, 48 h
Experimental: Assessment of apoptotic protein level alterations by western blot analysis by the protocol described previously. The control included cells without treatment. To provide the cell lysate, cells were collected and treated with the following materials: RIPA buffer [500 µL of Tris–HCl (pH = 8), one tablet of protease inhibitor cocktail, 0.003 g EDTA, 0.08 g NaCl, 0.025 g sodium deoxycholate, 0.01 g SDS and 10 µl of Triton NP40 (1%)] used at 4 °C. After that, the cells were centrifuged at 12,000 rpm for 10 min at 4 °C. To measure total protein, the supernatant of cells was determined by the Bradford assay (Bio–Rad protein assay, Bio–Rad Laboratories, USA) using a spectrophotometer (Bibby Scientific Ltd, Beacon Rd, UK). The portions of target protein received from the sodium dodecyl sulfate–polyacrylamide gel electrophoresis (SDS–PAGE) were carried over the polyvinylidene difluoride (PVDF) membrane and were blocked with TBST buffer containing 5% (w/v) skim milk (0.1% v/v Tween®20-tris buffered saline: TBST). The blocked PVDF membranes that contained the target proteins were incubated with specific primary antibodies: Bax (B-9) mouse monoclonal antibody (Santa Cruz) (1:1000), Bcl-2 sc-492 (Santa Cruz) rabbit monoclonal antibody (1:1000), caspase-7 (C7) (Cell Signaling) rabbit polyclonal antibody (1:1000), Caspase-3 Cell Signaling rabbit monoclonal antibody (1:1000), caspase-9 (Cell Signaling) rabbit polyclonal antibody (1:1000), GAPDH (Santa Cruz) mouse monoclonal antibody (1:1000) and P27 (Elabscience) rabbit polyclonal antibody (1:400) that were diluted with blocking buffer) overnight at 4 °C. The membrane was washed with TBST and incubated with secondary antibodies (m-IgGκ BP-HRP (Santa Cruz) for Bax (B-9), Bcl-2 and GAPDH, and mouse anti-rabbit IG-HRP (Santa Cruz) was used for Caspase-3, 7, 9 and P27, which were diluted using blocking buffer (1:1000).) for 1 h at room temperature. The target protein bands were visualized by an enhanced chemiluminescence detection kit (Thermo Fisher Scientific, Breda, the Netherlands) and Amersham® Imager 600 system (GE Healthcare Life Sciences, Eindhoven, Netherlands). Finally, the western blotting results were normalized to the expression of GAPDH as the loading control. All the protein bands were quantified by ImageJ software (v. 1.52n).

[12] = tested on: MCF-7, A549 and Caco-2 cell lines; experiment: Real time PCR of apoptosis pathway genes; type: cell-based, Human; settings: IC50 values, 48 h, GAPDH reference gene
Experimental: Then, the cells were rinsed with cold PBS and harvested. Total RNA was isolated from MCF-Z, A549, and Caco-2 cell lines by the TRIzol method (TRIzol™ Reagent (Invitrogen, Catalog number: 15596026)). Briefly, the cells were centrifuged at 500 g at 4 °C, the plates were processed for cell lysate by 750 μl of RiboEx; then 200 μl chloroform was subjoined to the cell lysate and after incubating for 2 min at room temperature, they were centrifuged at 12,000 g for 20 min (4 °C). Following collection of aqueous phases, one volume of isopropyl alcohol was dispensed for precipitation of total RNA at 12,000 g for 20 min (4 °C). The RNA plate was rinsed with 75% ethanol and dissolved in deep water. Complementary DNA (cDNA) synthesis was performed by Revert Aid Reverse Transcriptase (Cat numb: EP0441, Thermo Scientific, Lithuania) according to the manufacturer’s instructions. For evaluation of the apoptosis pathway genes, real time PCR was carried out based on the following PCR program[28]: initial denaturation at 95 °C for 15 min, 45 cycles of denaturation at 95 °C for 15 sec, and annealing/extension at 60 °C for 50 sec. The real time PCR mixture contained 5 μL 2x SYBR Green Master Mix (RealQ Plus 2x Master Mix Green, Ampliqon, Denmark), 2 μL cDNA, 0.5 μL of 5 pmol/μL primer pair mix (Eurofin, Germany), and 3 μL H2O. […]

IC50 ([1]; A549, 24 h): 147 µM
IC50 ([1]; A549, 48 h): 102 µM
IC50 ([1]; A549, 72 h): 69.3 µM
IC50 ([2]; MCF-7, 24 h): 200 µM
IC50 ([2]; MCF-7, 48 h): 193 µM
IC50 ([2]; MCF-7, 72 h): 181 µM
IC50 ([3]; Caco-2, 24 h): 17.2 µM
IC50 ([3]; Caco-2, 48 h): 2.3 µM
IC50 ([3]; Caco-2, 72 h): 1.75 µM
Structure (SMILES): [Cl][Pt-2]12[S]C(Nc3ccccc3)=N[N+]1=Cc1cccc[n+]12 (stereo not drawn) [Pt(TSC)Cl complex, [Pt(TSC)Cl]]
fold more toxicity than cisplatin ([3]; Caco-2, 48 h): 46 fold
IC50 [4]: 63.9 µM
G0/G1, percentage of cells (A549 cells [5]): 47.71%
G2/M, percentage of cells (A549 cells [5]): 15.66%
S, percentage of cells (A549 cells [5]): 13.94%
SubG1, percentage of cells (A549 cells [5]): 22% and 21.78%
G0/G1, percentage of cells (MCF-7 cells [6]): 53.17%
G2/M, percentage of cells (MCF-7 cells [6]): 14.70%
S, percentage of cells (MCF-7 cells [6]): 28% and 27.72%
SubG1, percentage of cells (MCF-7 cells [6]): 4.95%
G0/G1, percentage of cells (Caco-2 cells [7]): 30.34%
G2/M, percentage of cells (Caco-2 cells [7]): 5.08%
S, percentage of cells (Caco-2 cells [7]): 14.91%
SubG1, percentage of cells (Caco-2 cells [7]): ~51%
Early apoptosis (PI-/FITC+) cells (Q3) (A549 cells [8]): 3.74%
Late apoptosis (PI+/FITC+) cells (Q2) (A549 cells [8]): 7.12%
Necrosis (PI+/FITC-) cells (Q1) (A549 cells [8]): 3.9%
Viable (PI-/FITC-) cells (Q4) (A549 cells [8]): 85.2%
percentage of apoptotic cells (early + late) (A549 cells [8]): 10.86%
Early apoptosis (PI-/FITC+) cells (Q3) (MCF-7 cells [9]): 6.47%
Late apoptosis (PI+/FITC+) cells (Q2) (MCF-7 cells [9]): 23.8%
Necrosis (PI+/FITC-) cells (Q1) (MCF-7 cells [9]): 2.38%
Viable (PI-/FITC-) cells (Q4) (MCF-7 cells [9]): 67.3%
Late apoptosis (PI+/FITC+) cells (Q2) (Caco-2 cells [10]): 52.4%
Necrosis (PI+/FITC-) cells (Q1) (Caco-2 cells [10]): 4.79%
Viable (PI-/FITC-) cells (Q4) (Caco-2 cells [10]): 5.58%
Bcl2 protein levels (Caco-2 cells [11]): downregulation
Bax protein level, fold vs control group (Caco-2 cells [11]; normalized to GAPDH): 1.9 fold
caspase 3 protein level, fold vs control group (Caco-2 cells [11]; normalized to GAPDH): 1.97 fold
caspase 7 protein level, fold vs control group (Caco-2 cells [11]; normalized to GAPDH): 1.92 fold
caspase 9 protein level, fold vs control group (Caco-2 cells [11]; normalized to GAPDH): 3.2 fold
p27 protein, fold increase vs control group (Caco-2 cells [11]; normalized to GAPDH): 2.14 fold
expression of apoptotic pathway genes Bax and Caspases 9, 3 and 7 vs control [12]: upregulated

Structure (SMILES): N.N.[Cl][Pt][Cl] [cisplatin, reference compound]
IC50 ([1]; A549, 24 h): 96.8 µM
IC50 ([1]; A549, 48 h): 42.9 µM
IC50 ([1]; A549, 72 h): 13.1 µM
IC50 ([2]; MCF-7, 24 h): 162 µM
IC50 ([2]; MCF-7, 48 h): 142 µM
IC50 ([2]; MCF-7, 72 h): 150 µM
IC50 [4]: 4.15 µM
SubG1, percentage of cells (A549 cells [5]): 0.42%
G0/G1, percentage of cells (A549 cells [5]; listed as Cis): 66.94%
G2/M, percentage of cells (A549 cells [5]; listed as Cis): 16.08%
S, percentage of cells (A549 cells [5]; listed as Cis): 16.13%
G2/M, percentage of cells (MCF-7 cells [6]): 15.88%
S, percentage of cells (MCF-7 cells [6]): 37.2%
G0/G1, percentage of cells (MCF-7 cells [6]; listed as Cis): 37.21%
S, percentage of cells (MCF-7 cells [6]; listed as Cis): 37.43%
SubG1, percentage of cells (MCF-7 cells [6]; listed as Cis): 6.8%
Early apoptosis (PI-/FITC+) cells (Q3) (A549 cells [8]): 7.50%
Late apoptosis (PI+/FITC+) cells (Q2) (A549 cells [8]): 7.83%
Necrosis (PI+/FITC-) cells (Q1) (A549 cells [8]): 1.73%
percentage of apoptotic cells (early + late) (A549 cells [8]): 15.33%
Early apoptosis (PI-/FITC+) cells (Q3) (MCF-7 cells [9]): 8.48%
Late apoptosis (PI+/FITC+) cells (Q2) (MCF-7 cells [9]): 10.4%
Necrosis (PI+/FITC-) cells (Q1) (MCF-7 cells [9]): 3.24%
percentage of apoptotic cells (early + late) (MCF-7 cells [9]): 18.88%
